Data set [1] can be described thus: Pharmacokinetic test of compound in SD rat. It counts as in vivo. The settings on record: SD rats, intragastric administration (IG), cassette dosing. The method, then:
Example 28: Pharmacokinetic Test of Compound in SD Rat
The animal species used in this experiment were SD rats. There were 3 animals per group. The rats were dosed in cassette format, i.e., multiple (1-6) different compounds were dosed simultaneously to the same group of the SD rats. The vehicle used for the drug was 5% DMSO+5% Solutl+90% ([…] methylcellulose M450), and the administration route was intragastric administration (IG).

Data set [2] addresses T1, ADORA3 receptor (CHO cells stably expressing ADORA3 receptor) (Homo sapiens, UniProt P0DMS8).
T1 construct: expressed in transfected cells
T1 sequence (P0DMS8 1-318): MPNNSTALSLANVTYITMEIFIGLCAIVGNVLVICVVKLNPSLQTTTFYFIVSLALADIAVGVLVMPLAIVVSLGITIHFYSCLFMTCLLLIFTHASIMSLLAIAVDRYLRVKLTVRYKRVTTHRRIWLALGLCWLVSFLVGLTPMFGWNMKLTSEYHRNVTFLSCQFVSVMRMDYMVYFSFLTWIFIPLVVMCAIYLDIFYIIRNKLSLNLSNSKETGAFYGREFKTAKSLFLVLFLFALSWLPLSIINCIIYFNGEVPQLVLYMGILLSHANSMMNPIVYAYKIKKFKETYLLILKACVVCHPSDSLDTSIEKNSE
The experiment in a line: Effect of compound on intracellular cAMP level by adenosine A3 receptor agonism. The format is cell-based. Particulars: forskolin-stimulated. The method, then: Example 26: Test the Effect of Compound on Intracellular cAMP Level by Adenosine A3 Receptor Agonism
• 1) 1×HBSS with Ca2+ and Mg2+ (14 mL), 1 M HEPES (75 μL), a 7.5% (w/v) BSA stabilizer (pH 7.4, 200 μL), and 20 mM rolipram (7.5 μL) were respectively prepared as cAMP assay buffer. • 2) Preparation of compound source plate • a. […] A 10 mM stock solution was subjected to a 3-fold serial dilution by 100% (v/v) DMSO to prepare 10 doses of the test substance. • c. 1 mM of Forskolin was prepared by 100% (v/v) DMSO. • 3) Preparation of test plate • a. Prior to the assay, CHO cells stably expressing ADORA3 receptor were harvested and the cells were counted by using a Countess cell counter. […] The cells were seeded at a density of 2,000 cells/well in a 384-well plate. • 4) 10 nL/well of the serially diluted compound and 10 nL/well of 1 mM of forskolin were transferred to each well with ADORA3 receptor expressing cells by using Echo550. • 5) A cell plate was centrifuged at 1,000 rpm for 1 minute and then stirred at 600 rpm for 2 minutes. The plate was incubated at 37° C. • 6) An Eu-cAMP tracer working solution and an Ulight-anti-cAMP working solution were prepared according to the following table.
• 7) 5 μl/well of the Eu-cAMP tracer working solution and 5 μl/well of the Ulight-anti-cAMP working solution were added to each well of the plate. […] 2. Data Analysis • 1) An activation percentage was calculated by using the following formula:
[formula] • % Activation: activation percentage • Ratiocpd: ratio of emissivity of test compound • RatioLow control: ratio of low emissivity • RatioHigh control: ratio of high emissivity • 2) EC50 was calculated by an XLfit using the Hill equation to fit the activity percentage and a log of a compound concentration. 3. Test Result

As a reminder, the EC50 is the midpoint of the concentration-response curve. A higher EC50 goes with a need for much substance. Consider `CNC(=O)[C@H]1O[C@@H](n2cnc3c(NCc4cccc(C)c4)nc(-c4cncc(C)c4)nc32)[C@H](O)[C@@H]1O` [compound 284, (2S,3S,4R,5R)-5-(6-(3-methylbenzylamino)-2-(5-methylpyridin-3-yl)-9H-purin-9-yl)-3,4-dihydroxyl-N-methyl-tetrahydrofuran-2-formamide], for which the “AUC_D” value in data set [1] is 8902.66 kg·ng·h/mL/mg. The compound also displayed an EC50 in data set [2] of 2.85 nM. On to `CNC(=O)[C@H]1O[C@@H](n2cnc3c(NCc4cc(Cl)ccn4)nc(-c4cccnc4)nc32)[C@H](O)[C@@H]1O` [compound 182, (2S,3S,4R,5R)-5-(6-((4-chloropyridin-2-yl)methylamino)-2-(pyridin-3-yl)-9H-purin-9-yl)-3,4-dihydroxyl-N-methyl-tetrahydrofuran-2-formamide], for which, in data set [1], the “AUC_D” value was found to be 235.62 kg·ng·h/mL/mg. Also, the EC50 in data set [2] is under 0.51 nM. For `CNC(=O)[C@H]1O[C@H](n2cnc3c(NCc4cccc(C)c4)nc(-c4cncc(OC)c4)nc32)[C@H](O)[C@@H]1O` [compound 300], in that order: 729.20 kg·ng·h/mL/mg and 2.13 nM. For `CNC(=O)[C@H]1O[C@@H](n2cnc3c(NCc4cc(C(F)(F)F)ccn4)nc(-c4cncc(Cl)c4)nc32)[C@H](O)[C@@H]1O` [compound 294, (2S,3S,4R,5R)-5-(2-(5-chloropyridin-3-yl)-6-(((4-(trifluoromethyl)pyridin-2-yl)methyl)amino)-9H-purin-9-yl)-3,4-dihydroxyl-N-methyltetrahydrofuran-2-carboxamide], in that order: 639.00 kg·ng·h/mL/mg and 2.62 nM. For `[2H]C([2H])([2H])NC(=O)[C@H]1O[C@@H](n2cnc3c(NC([2H])([2H])[2H])nc(-c4ccsc4)nc32)[C@H](O)[C@@H]1O` [compound 92, (2S,3S,4R,5R)-3,4-dihydroxyl-N-(methyl-d3)-5-(6-(methyl-d3-amino)-2-(thiophen-3-yl)-9H-purin-9-yl)tetrahydrofuran-2-carboxamide], in that order: 83.00 kg·ng·h/mL/mg and under 0.51 nM. `CNC(=O)[C@H]1O[C@@H](n2cnc3c(NCc4cc(Cl)ccn4)nc(-c4cncc(OC)c4)nc32)[C@H](O)[C@@H]1O` [compound 185, (2S,3S,4R,5R)-5-(6-((4-chloropyridin-2-yl)methylamino)-2-(5-methoxypyridin-3-yl)-9H-purin-9-yl)-3,4-dihydroxyl-N-methyl-tetrahydrofuran-2-formamide]: the “AUC_D” value in data set [1] came out at 589.63 kg·ng·h/mL/mg. This compound registered an EC50 in data set [2] of under 0.51 nM. For `CNC(=O)[C@H]1O[C@@H](n2cnc3c(NCc4cccc(C(F)(F)F)n4)nc(-c4cncc(Cl)c4)nc32)[C@H](O)[C@@H]1O` [compound 290, (2S,3S,4R,5R)-5-(2-(5-chloropyridin-3-yl)-6-(((6-(trifluoromethyl)pyridin-2-yl)methyl)amino)-9H-purin-9-yl)-3,4-dihydroxyl-N-methyltetrahydrofuran-2-carboxamide], in that order: 216.77 kg·ng·h/mL/mg and 12.4 nM. Take `[2H]C([2H])([2H])NC(=O)[C@H]1O[C@@H](n2cnc3c(NCc4cccs4)nc(-c4cncc(Cl)c4)nc32)[C@H](O)[C@@H]1O` [compound 254, (2S,3S,4R,5R)-5-(2-(5-chloropyridin-3-yl)-6-((thiophen-2-ylmethyl)amino)-9H-purin-9-yl)-3,4-dihydroxyl-N-(methyl-d3)tetrahydrofuran-2-carboxamide]: the “AUC_D” value in data set [1] was 703.00 kg·ng·h/mL/mg. In data set [2], this compound showed an EC50 of 9.51 nM.

For `[2H]C([2H])([2H])NC(=O)[C@H]1O[C@@H](n2cnc3c(NCc4ccsc4)nc(-c4cncc(Cl)c4)nc32)[C@H](O)[C@@H]1O` [compound 255, (2S,3S,4R,5R)-5-(2-(5-chloropyridin-3-yl)-6-((thiophen-3-ylmethyl)amino)-9H-purin-9-yl)-3,4-dihydroxyl-N-(methyl-d3)tetrahydrofuran-2-carboxamide], the “AUC_D” value in data set [1] is 406.00 kg·ng·h/mL/mg. Moreover, in data set [2], it took 8.58 nM to reach a half-maximal effect (EC50). For `CNC(=O)[C@H]1O[C@@H](n2cnc3c(NCc4ccccc4)nc(-c4cncc(OC)c4)nc32)[C@H](O)[C@@H]1O` [compound 187, (2S,3S,4R,5R)-5-(6-(benzylamino)-2-(5-methoxypyridin-3-yl)-9H-purin-9-yl)-3,4-dihydroxyl-N-methyl-tetrahydrofuran-2-formamide], in that order: 1269.78 kg·ng·h/mL/mg and 14.5 nM.

Take `CNC(=O)[C@H]1O[C@@H](n2cnc3c(NCc4cccc(C(F)(F)F)n4)nc(-c4cncc(F)c4)nc32)[C@H](O)[C@@H]1O` [compound 289, (2S,3S,4R,5R)-5-(2-(5-fluoropyridin-3-yl)-6-(((6-(trifluoromethyl)pyridin-2-yl)methyl)amino)-9H-purin-9-yl)-3,4-dihydroxyl-N-methyltetrahydrofuran-2-carboxamide]: in data set [1], the “AUC_D” value stood at 106.30 kg·ng·h/mL/mg. The compound also yielded an EC50 in data set [2] of 6.81 nM.

With `CNC(=O)[C@H]1O[C@@H](n2cnc3c(NCc4cccc(C(F)(F)F)c4)nc(-c4cncc(Cl)c4)nc32)[C@H](O)[C@@H]1O` [compound 179, (2S,3S,4R,5R)-5-(6-(3-(trifluoromethyl)benzylamino)-2-(5-chloropyridin-3-yl)-9H-purin-9-yl)-3,4-dihydroxyl-N-methyl-tetrahydrofuran-2-formamide], the “AUC_D” value in data set [1] worked out at 273.37 kg·ng·h/mL/mg. Also, the EC50 in data set [2] amounted to 9.44 nM.

Consider `CNC(=O)[C@H]1O[C@@H](n2cnc3c(NCc4cccc(C)c4)nc(-c4cncc(F)c4)nc32)[C@H](O)[C@@H]1O` [compound 161, (2S,3S,4R,5R)-5-(2-(5-fluoropyridin-3-yl)-6-((3-methylbenzyl)amino)-9H-purin-9-yl)-3,4-dihydroxyl-N-methyltetrahydrofuran-2-carboxamide], for which the “AUC_D” value in data set [1] was found to be 994.72 kg·ng·h/mL/mg. For the same compound, in data set [2], the EC50 is 0.74 nM.

`[2H]C([2H])([2H])NC(=O)[C@H]1O[C@@H](n2cnc3c(NCc4cc(Cl)ccc4F)nc(-c4cncc(Cl)c4)nc32)[C@H](O)[C@@H]1O` [compound 245, (2S,3S,4R,5R)-5-(6-(5-chloro-2-fluorobenzylamino)-2-(5-chloropyridin-3-yl)-9H-purin-9-yl)-3,4-dihydroxyl-N-((methyl-d3))-tetrahydrofuran-2-carboxamide]: the “AUC_D” value in data set [1] was determined as 1182.41 kg·ng·h/mL/mg. For the same compound, in data set [2], a half-maximal effect (EC50) was put at 0.28 nM. Take `CNC(=O)[C@H]1O[C@@H](n2cnc3c(NC)nc(-c4cncc(Cl)c4)nc32)[C@H](O)[C@@H]1O` [compound 70, (2S,3S,4R,5R)-5-(2-(5-chloropyridin-3-yl)-6-(methylamino)-9H-purin-9-yl)-3,4-dihydroxyl-N-methyltetrahydrofuran-2-carboxamide]: the EC50 in data set [2] was found to be 1.23 nM.

On to `[2H]C([2H])([2H])NC(=O)[C@H]1O[C@@H](n2cnc3c(NCc4ccccc4)nc(-c4ccsc4)nc32)[C@H](O)[C@@H]1O` [compound 24, (2S,3S,4R,5R)-5-(6-(benzylamino)-2-(thiophen-3-yl)-9H-purin-9-yl)-3,4-dihydroxyl-N-(methyl-d3)-tetrahydrofuran-2-formamide], for which the “AUC_D” value in data set [1] turned out to be 86.00 kg·ng·h/mL/mg. In data set [2], this compound gave an EC50 of 5.77 nM. In the case of `[2H]C([2H])([2H])NC(=O)[C@H]1O[C@@H](n2cnc3c(NCc4cc(C)cc(Cl)c4)nc(-c4cncc(Cl)c4)nc32)[C@H](O)[C@@H]1O` [compound 222, (2S,3S,4R,5R)-5-(6-((3-chloro-5-methylbenzyl)amino)-2-(5-chloropyridin-3-yl)-9H-purin-9-yl)-3,4-dihydroxyl-N-(methyl-d3)-tetrahydrofuran-2-carboxamide], in data set [2], the response was half-maximal at 0.89 nM (EC50). Take `CNC(=O)[C@H]1O[C@@H](n2cnc3c(NCc4cccc(C)n4)nc(-c4cccnc4)nc32)[C@H](O)[C@@H]1O` [compound 107]: the EC50 in data set [2] is 5.22 nM.

The record behind these values is US12655174B2, “Adenosine A3 receptor agonists, preparation methods and uses thereof” (ZHEJIANG VIMGREEN PHARMACEUTICALS, LTD., priority 2020, dated 2026).
